Results on 27 compounds are retold here after patent US9085555B2, “Complement pathway modulators and uses thereof” (priority 2011, dated 2015).

The structures appear in SMILES notation.

Factor D, sequence (P00746 26-253): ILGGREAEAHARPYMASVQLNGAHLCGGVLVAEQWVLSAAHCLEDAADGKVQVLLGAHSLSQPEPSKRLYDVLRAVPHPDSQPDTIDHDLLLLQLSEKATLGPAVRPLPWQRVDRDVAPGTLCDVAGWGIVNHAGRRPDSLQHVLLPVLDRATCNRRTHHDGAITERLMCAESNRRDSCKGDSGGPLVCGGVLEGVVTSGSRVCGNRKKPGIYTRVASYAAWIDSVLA

The assay concerns the target Factor D (Homo sapiens (Human), UniProt P00746). Briefly: biochemical. Format: biochemical. The settings on record: read-out: IC50.
On to `NC(=O)n1cc(NC(=O)N2[C@@H](c3ccccc3)CC[C@H]2C(=O)Nc2cccc(OC(F)(F)F)c2)c2ccccc21` [Example 273, (2S,5R)-5-Phenyl-pyrrolidine-1,2-dicarboxylic acid 1-[(1-carbamoyl-1H-indol-3-yl)-amide] 2-[(3-trifluoromethoxy-phenyl)-amide]], for which the IC50 was found to be 2260 nM. The result for `CC(=O)c1nn(CC(=O)N2[C@@H]3C[C@@H]3C[C@H]2C(=O)N[C@H](CCN(C)C)c2cccc(Cl)c2F)c2ccccc12` [Example 642, (1R,3S,5R)-2-[2-(3-Acetyl-indazol-1-yl)-acetyl]-2-aza-bicyclo[3.1.0]hexane-3-carboxylic acid [(R)-1-(3-chloro-2-fluoro-phenyl)-3-dimethylamino-propyl]-amide] reads 15 nM; that for `NC(=O)n1cc(NC(=O)N2[C@@H]3C[C@@H]3C[C@H]2C(=O)NCc2cccc(Cl)c2F)c2cc(O)ccc21` [Example 371, (1R,3S,5R)-2-aza-bicyclo[3.1.0]hexane-2,3-dicarboxylic acid 2-[(1-carbamoyl-5-hydroxy-1H-indol-3-yl)-amide]3-(3-chloro-2-fluoro-benzylamide)], 3 nM; that for `CO[C@H]1[C@@H](C(=O)NC2(c3cccc(Cl)c3F)CC2)N(C(=O)Cn2nc(C(C)=O)c3ccncc32)C[C@@H]1F` [Example 631, (2S,3S,4S)-1-[2-(3-Acetyl-pyrazolo[3,4-c]pyridin-1-yl)-acetyl]-4-fluoro-3-methoxy-pyrrolidine-2-carboxylic acid [1-(3-chloro-2-fluoro-phenyl)-cyclopropyl]-amide], 11 nM.

Regarding `COCCN[C@H]1C[C@@H](C(=O)NCc2cccc(Cl)c2F)N(C(=O)Cn2cc(C(C)=O)c3ccccc32)C1` [Example 609, (2S,4S)-1-[2-(3-Acetyl-indol-1-yl)-acetyl]-4-(2-methoxy-ethylamino)-pyrrolidine-2-carboxylic acid 3-chloro-2-fluoro-benzylamide], the IC50 was found to be 1560 nM. The result for `CCc1cccc(NC(=O)[C@@H]2C[C@@H](F)CN2C(=O)Nc2cn(C(N)=O)c3ccccc23)n1` [Example 163, (2S,4R)-4-Fluoro-pyrrolidine-1,2-dicarboxylic acid 1-[(1-carbamoyl-1H-indol-3-yl)-amide] 2-[(6-ethyl-pyridin-2-yl)-amide]] reads 100 nM; that for `CO[C@H]1[C@@H](C(=O)Nc2cccc(OC(F)(F)F)c2F)N(C(=O)Cn2nc(C(N)=O)c3cc(C)ncc32)C[C@@H]1F` [Example 636, 1-{2-[(2S,3S,4S)-4-Fluoro-2-(2-fluoro-3-trifluoromethoxy-phenylcarbamoyl)-3-methoxy-pyrrolidin-1-yl]-2-oxo-ethyl}-5-methyl-1H-pyrazolo[3,4-c]pyridine-3-carboxylic acid amide triflate], 13 nM; that for `CC(=O)c1cn(CC(=O)N2CCCC[C@H]2C(=O)NCc2cccc(Cl)c2F)c2ccccc12` [Example 478, (S)-1-[2-(3-Acetyl-indol-1-yl)-acetyl]-piperidine-2-carboxylic acid 3-chloro-2-fluoro-benzylamide], 258 nM.

`Cc1cc2c(C(N)=O)nn(CC(=O)N3[C@@H]4C[C@@H]4C[C@H]3C(=O)Nc3cccc(Br)n3)c2cn1` [Example 734, 1-{2-[(1R,3S,5R)-3-(6-Bromo-pyridin-2-ylcarbamoyl)-2-aza-bicyclo[3.1.0]hex-2-yl]-2-oxo-ethyl}-5-methyl-1H-pyrazolo [3,4-c]pyridine-3-carboxylic acid amide]: the IC50 stood at 4 nM.

As to `[N-]=[N+]=NC[C@H]1CC[C@@H](C(=O)Nc2cccc(OC(F)(F)F)c2)N1C(=O)Nc1cn(C(N)=O)c2ccccc12` [Example 179, (2S,5R)-5-azidomethyl-pyrrolidine-1,2-dicarboxylic acid 1-[(1-carbamoyl-1H-indol-3-yl)-amide]2-[(3-trifluoromethoxy-phenyl)-amide]], the IC50 amounted to 400 nM. Under `CC(=O)c1cn(CC(=O)N2C[C@](C)(F)C[C@H]2C(=O)NCc2cccc(Cl)c2F)c2cc(C(=O)O)ccc12` [Example 599, 3-Acetyl-1-{2-[(2S,4R)-2-(3-chloro-2-fluoro-benzylcarbamoyl)-4-fluoro-4-methyl-pyrrolidin-1-yl]-2-oxo-ethyl}-1H-indole-6-carboxylic acid] stands 46 nM. The result for `NC(=O)n1cc(NC(=O)N2C[C@@H](N)C[C@H]2C(=O)NC2CCCCC2)c2ccccc21` [Example 77, (2S,4S)-4-Amino-pyrrolidine-1,2-dicarboxylic acid 1-[(1-carbamoyl-1H-indol-3-yl)-amide] 2-cyclohexylamide] reads 14600 nM.

For `COC(=O)c1ccc2c(C(C)=O)nn(CC(=O)N3[C@@H]4C[C@@H]4C[C@H]3C(=O)Nc3cccc(OC(F)(F)F)c3F)c2c1` [Example 710, Methyl 3-acetyl-1-(2-((1R,3S,5R)-3-(2-fluoro-3-(trifluoromethoxy)phenylcarbamoyl)-2-azabicyclo [3.1.0]hexan-2-yl)-2-oxoethyl)-1H-indazole-6-carboxylate], the IC50 was 52 nM. Under `NC(=O)n1cc(NC(=O)N2CSC[C@H]2C(=O)Nc2cccc(OC(F)(F)F)c2)c2ccccc21` [Example 161, (R)-Thiazolidine-3,4-dicarboxylic acid 3-[(1-carbamoyl-1H-indol-3-yl)-amide] 4-[(3-trifluoromethoxy-phenyl)-amide]] stands 987 nM.

Take `NC(=O)n1cc(NC(=O)N2CCC[C@H]2C(=O)Nc2cccc(OC(F)(F)F)c2)c2ccc(O)cc21` [Example 369, (S)-Pyrrolidine-1,2-dicarboxylic acid 1-[(1-carbamoyl-6-hydroxy-1H-indol-3-yl)-amide]2-[(3-trifluoromethoxy-phenyl)-amide]]: the IC50 was determined as 850 nM. Under `NC(=O)c1nn(CC(=O)N2CCS[C@H]2C(=O)NCc2cccc(Cl)c2F)c2cnccc12` [Example 657, 1-{2-[(S)-2-(3-Chloro-2-fluoro-benzylcarbamoyl)-thiazolidin-3-yl]-2-oxo-ethyl}-1H-pyrazolo[3,4-c]pyridine-3-carboxylic acid amide] stands 78 nM; under `NC(=O)n1cc(NC(=O)N2CCNC[C@H]2C(=O)NCc2cccc(Cl)c2)c2ccccc21` [Example 399, S)-piperazine-1,2-dicarboxylic acid 1-[(1-carbamoyl-1H-indol-3-yl)-amide]2-(3-chloro-benzylamide], 1600 nM.

Turning to `CC(=O)c1cn(CC(=O)N2C[C@@H](N)[C@H](F)[C@H]2C(=O)NCc2cccc(Cl)c2F)c2ccccc12` [Example 576, (2R,3S,4R)-1-[2-(3-Acetyl-indol-1-yl)-acetyl]-4-amino-3-fluoro-pyrrolidine-2-carboxylic acid 3-chloro-2-fluoro-benzylamide], the IC50 came to 400 nM. As for `CO[C@@H]1C[C@@H](C(=O)Nc2cccc(OC(F)(F)F)c2)N(C(=O)Nc2cn(C(N)=O)c3ccccc23)C1` [Example 316, (2S,4R)-4-Methoxy-pyrrolidine-1,2-dicarboxylic acid 1-[(1-carbamoyl-1H-indol-3-yl)-amide] 2-[(3-trifluoromethoxy-phenyl)-amide]], the IC50 was 3100 nM.

Turning to `O=C(Nc1cccc(OC(F)(F)F)c1)[C@@H]1CCCN1C(=O)Nc1cn(C(=O)CO)c2ccccc12` [Example 366, (S)-Pyrrolidine-1,2-dicarboxylic acid 1-{[1-(2-hydroxy-acetyl)-1H-indol-3-yl]-amide}2-[(3-trifluoromethoxy-phenyl)-amide]], the IC50 was 3250 nM. Take `CC(=O)n1cc(NC(=O)N2[C@H](C(=O)NCc3cccc(Cl)c3F)C[C@@]3(CO)C[C@@H]23)c2ccccc21` [Example 275, (1R,3S,5S)-5-Hydroxymethyl-2-aza-bicyclo[3.1.0]hexane-2,3-dicarboxylic acid 2-[(1-acetyl-1H-indol-3-yl)-amide] 3-(3-chloro-2-fluoro-benzylamide)]: the IC50 stood at 30 nM. The result for `CC(=O)c1nn(CC(=O)N2[C@@H]3C[C@@H]3C[C@H]2C(=O)Nc2cccc(OC(F)(F)F)c2F)c2ccc(OC(C)C#N)cc12` (stereo partly drawn) [Example 771, (1R,3S,5R)-2-{2-[3-Acetyl-5-(cyano-methyl-methoxy)-indazol-1-yl]-acetyl}-2-aza-bicyclo[3.1.0]hexane-3-carboxylic acid (2-fluoro-3-trifluoromethoxy-phenyl)-amide] reads 8 nM. The result for `Cc1cc2c(C(N)=O)nn(CC(=O)N3C[C@H](F)C[C@H]3C(=O)N[C@H](C)c3cccc(Cl)c3F)c2cn1` [Example 691, 1-(2-{(2S,4R)-2-[(R)-1-(3-Chloro-2-fluoro-phenyl)-ethylcarbamoyl]-4-fluoro-pyrrolidin-1-yl}-2-oxo-ethyl)-5-methyl-1H-pyrazolo[3,4-c] pyridine-3-carboxylic acid amide] reads 68 nM; that for `CC(=O)c1cn(CC(=O)N2C[C@H](F)[C@@H](N)[C@H]2C(=O)NCc2cccc(Cl)c2F)c2ccccc12` [Example 575, (2S,3S,4S)-1-[2-(3-Acetyl-indol-1-yl)-acetyl]-3-amino-4-fluoro-pyrrolidine-2-carboxylic acid 3-chloro-2-fluoro-benzylamide], 843 nM. In the case of `NC(=O)n1cc(NC(=O)N2[C@@H]3C[C@@H]3C[C@H]2C(=O)NCc2cccc(Cl)c2F)c2cc(CC(=O)O)ccc21` [Example 377, (1-Carbamoyl-3-{[(1R,3S,5R)-3-(3-chloro-2-fluoro-benzylcarbamoyl)-2-aza-bicyclo[3.1.0]hexane-2-carbonyl]-amino}-1H-indol-5-yl)-acetic acid], the IC50 is 20 nM. Under `CC(=O)c1cn(CC(=O)N2C[C@@H]3C[C@@H]3[C@H]2C(=O)N[C@H](CO)c2cccc(Cl)c2F)c2ccccc12` [Example 612, (1S,2S,5R)-3-[2-(3-Acetyl-indol-1-yl)-acetyl]-3-aza-bicyclo[3.1.0]hexane-2-carboxylic acid [(S)-1-(3-chloro-2-fluoro-phenyl)-2hydroxy-ethyl]-amide] stands 3430 nM; under `CCC(=O)c1cn(CC(=O)N2[C@@H]3C[C@@H]3C[C@H]2C(=O)NCc2cccc(Cl)c2F)c2cnccc12` [Example 645, (1R,3S,5R)-2-[2-(3-Propionyl-pyrrolo[2,3-c]pyridin-1-yl)-acetyl]-2-aza-bicyclo [3.1.0]hexane-3-carboxylic acid 3-chloro-2-fluoro-benzylamide], 132 nM.

As usually defined, the IC50 is the concentration needed to halve the response being measured.
